Laboratory results reported in patent publication US20020137929A1, “1 - (3-heterocyclylphenyl) isothiourea, -isourea, -guanidine and -amidine herbicidal agents” (Intellectual Property Department, BASF Aktiengesellschaft, priority 1998, published 2002).

Experiments:
[1] = test system: AMBEL (Ragweed, Common); experiment: Postemergence herbicidal evaluation; type: in vivo, Ambrosia artemisifolia; conditions: for AMBEL herbicidal rating: postemergence
Summary of the method: (§1)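 Herbicidal effect was judged by eye on a 0–9 scale covering stand, vigor, deformity, size and chlorosis, compared with controls, four to five weeks after seedlings about two weeks old were sprayed (40 psi, ~0.0156–0.500 kg/ha).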

[2] = test system: IPOHE (Morningglory, Ivyleaf); experiment: Postemergence herbicidal evaluation; type: in vivo, Ipomoea hederacea; conditions: for IPOHE herbicidal rating: postemergence
Summary of the method: as §1

[3] = test system: GLXMAW (Soybean, Williams); experiment: Postemergence herbicidal evaluation; type: in vivo, Glycine max, (L.) Merr. cv Williams; conditions: for GLXMAW herbicidal rating: postemergence
Summary of the method: as §1

[4] = test system: ZEAMX (Corn, Field); experiment: Postemergence herbicidal evaluation; type: in vivo, Zea mays; conditions: for ZEAMX herbicidal rating: postemergence
Summary of the method: as §1

[5] = test system: ABUTH (Velvetleaf); experiment: Preemergence herbicidal evaluation; type: in vivo, Abutilon theophrasti; conditions: rated 4-5 weeks after treatment; for ABUTH rating: preemergence, 0-9 scale
Summary of the method: (§2)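 Seeds were mixed with potting soil and planted on about one inch of soil, then sprayed with test compound in aqueous acetone at about 0.0156 to 0.500 kg per hectare. Plants grew under standard greenhouse care and were visually rated 0-9 against untreated controls 4-5 weeks post-treatment.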

[6] = test system: AMBEL (Ragweed, Common); experiment: Preemergence herbicidal evaluation; type: in vivo, Ambrosia artemisifolia; conditions: rated 4-5 weeks after treatment; for AMBEL rating: preemergence, 0-9 scale
Summary of the method: as §2

[7] = test system: CASOB (Sicklepod); experiment: Preemergence herbicidal evaluation; type: in vivo, Cassia obtusifolia; conditions: rated 4-5 weeks after treatment; for CASOB rating: preemergence, 0-9 scale
Summary of the method: as §2

[8] = test system: GALAP (Galium); experiment: Preemergence herbicidal evaluation; type: in vivo, Galium aparine; conditions: rated 4-5 weeks after treatment; for GALAP rating: preemergence, 0-9 scale
Summary of the method: as §2

[9] = test system: ECHCG (Barnyardgrass); experiment: Preemergence herbicidal evaluation; type: in vivo, Echinochloa crus-galli; conditions: rated 4-5 weeks after treatment; for ECHCG rating: preemergence, 0-9 scale
Summary of the method: as §2

[10] = test system: SETVI (Foxtail, Green); experiment: Preemergence herbicidal evaluation; type: in vivo, Setaria viridis; conditions: rated 4-5 weeks after treatment; for SETVI rating: preemergence, 0-9 scale
Summary of the method: as §2

[11] = test system: GLXMAW (Soybean, Williams); experiment: Preemergence herbicidal evaluation; type: in vivo, Glycine max, (L.) Merr. cv Williams; conditions: rated 4-5 weeks after treatment; for GLXMAW rating: preemergence, 0-9 scale
Summary of the method: as §2

[12] = test system: CYPSE (Flatsedge); experiment: Preemergence weed control under flooded paddy conditions; type: in vivo, Cyperus serotinus; conditions: rated 3-4 weeks after treatment
Summary of the method: (§3)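 Flooded-pot preemergence screen with silt loam and seeds in the upper 0.5 cm. Dose about 0.0313 to 0.500 kg/ha, delivered into flood water; visual 0-9 score after 3 to 4 weeks.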

[13] = test system: SAGPY (Arrowhead (Pygmaea)); experiment: as above; type: in vivo, Sagittaria pygmaea; conditions: rated 3-4 weeks after treatment
Summary of the method: as §3

[14] = test system: ECHORC (Watergrass (Calif.)); experiment: Postemergence weed control under flooded paddy conditions; type: in vivo, Echinochloa oryzoides; conditions: postemergence weeds
Summary of the method: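 With weeds 3 to 5 cm tall and rice at the 1.5 to 2.5 leaf stage, containers were flooded and water held 1.5 to 3 cm above soil. Compounds in 50/50 v/v aqueous/acetone went into the flood water at about 0.0313 to 0.500 kg/ha a.i. Effects were visually rated 0–9 against controls after three to four weeks in the greenhouse.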

CC(C)OC(=O)CC1SC(=Nc2cc(-n3c(=O)cc(C(F)(F)F)n(C)c3=O)c(F)cc2Cl)N(C)C1=O (stereo not drawn) [Compound 89, Isopropyl 2-{{2-chloro-5-[3,6-dihydro-3-methyl-2,6-dioxo-4-(trifluoromethyl)-1(2H)-pyrimidinyl]-4-fluorophenyl}imino}-3-methyl-4-oxo-5-thiazolidineacetate]
AMBEL herbicidal rating ([1]; rate 0.0158 kg/ha): 4.0
AMBEL herbicidal rating ([1]; rate 0.0313 kg/ha): 9.0
AMBEL herbicidal rating ([1]; rate 0.0625 kg/ha): 9.0
AMBEL herbicidal rating ([1]; rate 0.1250 kg/ha): 9.0
IPOHE herbicidal rating ([2]; rate 0.0158 kg/ha): 9.0
IPOHE herbicidal rating ([2]; rate 0.0313 kg/ha): 9.0
IPOHE herbicidal rating ([2]; rate 0.0625 kg/ha): 9.0
IPOHE herbicidal rating ([2]; rate 0.1250 kg/ha): 9.0
GLXMAW herbicidal rating ([3]; rate 0.0158 kg/ha): 7.5
GLXMAW herbicidal rating ([3]; rate 0.0313 kg/ha): 9.0
GLXMAW herbicidal rating ([3]; rate 0.0625 kg/ha): 9.0
GLXMAW herbicidal rating ([3]; rate 0.1250 kg/ha): 9.0
ZEAMX herbicidal rating ([4]; rate 0.0158 kg/ha): 7.5
ZEAMX herbicidal rating ([4]; rate 0.0313 kg/ha): 7.5
ZEAMX herbicidal rating ([4]; rate 0.0625 kg/ha): 8.5
ZEAMX herbicidal rating ([4]; rate 0.1250 kg/ha): 9.0
ABUTH rating ([5]; 0.0156 kg/ha): 1.5
ABUTH rating ([5]; 0.0313 kg/ha): 6.5
ABUTH rating ([5]; 0.0625 kg/ha): 9.0
ABUTH rating ([5]; 0.1250 kg/ha): 9.0
ABUTH rating ([5]; 0.2500 kg/ha): 9.0
ABUTH rating ([5]; 0.5000 kg/ha): 9.0
AMBEL rating ([6]; 0.0156 kg/ha): 0.0
AMBEL rating ([6]; 0.0313 kg/ha): 0.5
AMBEL rating ([6]; 0.0625 kg/ha): 2.0
AMBEL rating ([6]; 0.1250 kg/ha): 6.5
AMBEL rating ([6]; 0.2500 kg/ha): 6.5
AMBEL rating ([6]; 0.5000 kg/ha): 9.0
CASOB rating ([7]; 0.0156 kg/ha): 0.0
CASOB rating ([7]; 0.0313 kg/ha): 0.0
CASOB rating ([7]; 0.0625 kg/ha): 0.0
CASOB rating ([7]; 0.1250 kg/ha): 3.0
CASOB rating ([7]; 0.2500 kg/ha): 6.0
CASOB rating ([7]; 0.5000 kg/ha): 9.0
GALAP rating ([8]; 0.0156 kg/ha): 0.0
GALAP rating ([8]; 0.0313 kg/ha): 0.0
GALAP rating ([8]; 0.0625 kg/ha): 0.0
GALAP rating ([8]; 0.1250 kg/ha): 4.5
GALAP rating ([8]; 0.2500 kg/ha): 8.5
GALAP rating ([8]; 0.5000 kg/ha): 9.0
ECHCG rating ([9]; 0.0156 kg/ha): 0.0
ECHCG rating ([9]; 0.0313 kg/ha): 0.0
ECHCG rating ([9]; 0.0625 kg/ha): 0.0
ECHCG rating ([9]; 0.1250 kg/ha): 2.0
ECHCG rating ([9]; 0.2500 kg/ha): 5.5
ECHCG rating ([9]; 0.5000 kg/ha): 9.0
SETVI rating ([10]; 0.0156 kg/ha): 0.0
SETVI rating ([10]; 0.0313 kg/ha): 1.5
SETVI rating ([10]; 0.0625 kg/ha): 1.5
SETVI rating ([10]; 0.1250 kg/ha): 9.0
SETVI rating ([10]; 0.2500 kg/ha): 9.0
SETVI rating ([10]; 0.5000 kg/ha): 9.0
GLXMAW rating ([11]; 0.0156 kg/ha): 0.0
GLXMAW rating ([11]; 0.0313 kg/ha): 0.0
GLXMAW rating ([11]; 0.0625 kg/ha): 1.0
GLXMAW rating ([11]; 0.1250 kg/ha): 2.0
GLXMAW rating ([11]; 0.2500 kg/ha): 8.5
GLXMAW rating ([11]; 0.5000 kg/ha): 9.0
CYPSE herbicidal effect rating ([12]; 0.0313 kg/ha): 0.0
CYPSE herbicidal effect rating ([12]; 0.0625 kg/ha): 0.0
CYPSE herbicidal effect rating ([12]; 0.1250 kg/ha): 4.0
CYPSE herbicidal effect rating ([12]; 0.2500 kg/ha): 6.0
SAGPY herbicidal effect rating ([13]; 0.0313 kg/ha): 4.0
SAGPY herbicidal effect rating ([13]; 0.0625 kg/ha): 5.0
SAGPY herbicidal effect rating ([13]; 0.1250 kg/ha): 9.0
SAGPY herbicidal effect rating ([13]; 0.2500 kg/ha): 9.0
Herbicidal rating ECHORC ([14]; Rate 0.0313 kg/ha, rated 3 to 4 weeks after treatment): 3.0
Herbicidal rating ECHORC ([14]; Rate 0.0625 kg/ha, rated 3 to 4 weeks after treatment): 4.0
Herbicidal rating ECHORC ([14]; Rate 0.1250 kg/ha, rated 3 to 4 weeks after treatment): 5.0
Herbicidal rating ECHORC ([14]; Rate 0.2500 kg/ha, rated 3 to 4 weeks after treatment): 6.0

CCOC(=O)CN1C(=O)C(CCO)S/C1=N/c1cc(-n2c(=O)cc(C(F)(F)F)n(C)c2=O)c(F)cc1Cl (stereo not drawn) [Compound 49, Ethyl 2-{{2-chloro-5-[3,6-dihydro-3-methyl-2,6-dioxo-4-(trifluoromethyl)-1(2H)-pyrimidinyl]-4-fluorophenyl}imino}-5-(hydroxyethyl)-4-oxo-3-thiazolidineacetate]
Postemergence herbicidal rating AMBEL ([1]; Rate 0.0313 kg/ha): 9.0
Postemergence herbicidal rating AMBEL ([1]; Rate 0.0625 kg/ha): 9.0
Postemergence herbicidal rating AMBEL ([1]; rate 0.0156 kg/ha): 9.0
Postemergence herbicidal rating IPOHE ([2]; Rate 0.0313 kg/ha): 9.0
Postemergence herbicidal rating IPOHE ([2]; Rate 0.0625 kg/ha): 9.0
Postemergence herbicidal rating IPOHE ([2]; rate 0.0156 kg/ha): 9.0
Postemergence herbicidal rating GLXMAW ([3]; Rate 0.0313 kg/ha): 7.5
Postemergence herbicidal rating GLXMAW ([3]; Rate 0.0625 kg/ha): 8.0
Postemergence herbicidal rating GLXMAW ([3]; rate 0.0156 kg/ha): 7.5
Postemergence herbicidal rating ZEAMX ([4]; Rate 0.0313 kg/ha): 5.5
Postemergence herbicidal rating ZEAMX ([4]; Rate 0.0625 kg/ha): 6.0
Postemergence herbicidal rating ZEAMX ([4]; rate 0.0156 kg/ha): 5.0
Preemergence herbicidal rating ABUTH ([5]; rate 0.0156 kg/ha): 9.0
Preemergence herbicidal rating ABUTH ([5]; rate 0.0313 kg/ha): 9.0
Preemergence herbicidal rating ABUTH ([5]; rate 0.0625 kg/ha): 9.0
Preemergence herbicidal rating ABUTH ([5]; rate 0.1250 kg/ha): 9.0
Preemergence herbicidal rating ABUTH ([5]; rate 0.2500 kg/ha): 9.0
Preemergence herbicidal rating AMBEL ([6]; rate 0.0156 kg/ha): 0.0
Preemergence herbicidal rating AMBEL ([6]; rate 0.0313 kg/ha): 0.0
Preemergence herbicidal rating AMBEL ([6]; rate 0.0625 kg/ha): 9.0
Preemergence herbicidal rating AMBEL ([6]; rate 0.1250 kg/ha): 9.0
Preemergence herbicidal rating AMBEL ([6]; rate 0.2500 kg/ha): 9.0
Preemergence herbicidal rating CASOB ([7]; rate 0.0156 kg/ha): 0.0
Preemergence herbicidal rating CASOB ([7]; rate 0.0313 kg/ha): 3.0
Preemergence herbicidal rating CASOB ([7]; rate 0.1250 kg/ha): 3.0
Preemergence herbicidal rating CASOB ([7]; rate 0.2500 kg/ha): 9.0
Preemergence herbicidal rating GALAP ([8]; rate 0.0156 kg/ha): 0.0
Preemergence herbicidal rating GALAP ([8]; rate 0.0313 kg/ha): 0.0
Preemergence herbicidal rating GALAP ([8]; rate 0.0625 kg/ha): 7.0
Preemergence herbicidal rating GALAP ([8]; rate 0.1250 kg/ha): 7.0
Preemergence herbicidal rating GALAP ([8]; rate 0.2500 kg/ha): 9.0
Preemergence herbicidal rating ECHCG ([9]; rate 0.0156 kg/ha): 0.0
Preemergence herbicidal rating ECHCG ([9]; rate 0.0313 kg/ha): 0.0
Preemergence herbicidal rating ECHCG ([9]; rate 0.0625 kg/ha): 0.0
Preemergence herbicidal rating ECHCG ([9]; rate 0.1250 kg/ha): 0.0
Preemergence herbicidal rating ECHCG ([9]; rate 0.2500 kg/ha): 3.0
Preemergence herbicidal rating SETVI ([10]; rate 0.0156 kg/ha): 0.0
Preemergence herbicidal rating SETVI ([10]; rate 0.0313 kg/ha): 4.0
Preemergence herbicidal rating SETVI ([10]; rate 0.0625 kg/ha): 5.0
Preemergence herbicidal rating SETVI ([10]; rate 0.2500 kg/ha): 5.0
Preemergence herbicidal rating GLXMAW ([11]; rate 0.0156 kg/ha): 0.0
Preemergence herbicidal rating GLXMAW ([11]; rate 0.0313 kg/ha): 0.0
Preemergence herbicidal rating GLXMAW ([11]; rate 0.0625 kg/ha): 2.0
Preemergence herbicidal rating GLXMAW ([11]; rate 0.1250 kg/ha): 2.0
Preemergence herbicidal rating GLXMAW ([11]; rate 0.2500 kg/ha): 2.0
Herbicidal rating CYPSE ([12]; 0.0313 kg/ha): 2.0
Herbicidal rating CYPSE ([12]; 0.0625 kg/ha): 3.0
Herbicidal rating CYPSE ([12]; 0.2500 kg/ha): 4.0
Herbicidal rating SAGPY ([13]; 0.0313 kg/ha): 2.0
Herbicidal rating SAGPY ([13]; 0.0625 kg/ha): 4.0
Herbicidal rating SAGPY ([13]; 0.1250 kg/ha): 6.0
Herbicidal rating SAGPY ([13]; 0.2500 kg/ha): 7.0
Herbicidal rating ECHORC ([14]; rate 0.0313 kg/ha, 3-4 weeks after treatment): 0.0
Herbicidal rating ECHORC ([14]; rate 0.0625 kg/ha, 3-4 weeks after treatment): 2.0
Herbicidal rating ECHORC ([14]; rate 0.1250 kg/ha, 3-4 weeks after treatment): 5.0
Herbicidal rating ECHORC ([14]; rate 0.2500 kg/ha, 3-4 weeks after treatment): 7.0
